Measured values taken from US20200079814A1, “Nucleotides comprising an N-[(S)-1-cyclobutoxycarbonyl]phosphoramidate moiety and analogs and application thereof” (priority 2017, published 2020).
Several values for one entry are separate records, joined by “and”; a condition that tells them apart may be missing. Equal entries are not always repeated. Where two headings read alike, the source gives them in different places. Marks after values point to notes of the source that are not given here.

Legend:
[1] = system: HCV; conditions: literature; cited from earlier work
[2] = system: HIV strain NL4.3 carrying the GFP-reporter (NL4.3-GFP); assay: microbe, parasite or virus in culture; format: cell-based; conditions: for EC50: Human immunodeficiency virus 1, SUP-T1, 45 h; for SI = CC50/EC50: SupT1 cells
Method: (§1) The antiviral activity of tested compounds was evaluated on the T-lymphocytes line, SupT1. The cells were infected with the HIV strain NL4.3 carrying a gene encoding the green fluorescent protein (NL4.3-GFP). A virus preparation was obtained by means of transfection of the 293T cells of […] DNA. After 48 hours of transfection, the medication was frozen and stored until being used. To increase the efficiency of infection, the suspension of SupT1 cells was sedimented from the infection mixture by centrifugation. Tested compounds were added to the cells immediately before adding the virus. After 2 hours of incubation, the infection mixture was replaced by a fresh culture medium with tested compounds. The efficiency of infection was evaluated after 45 hours by computing the percentage of fluorescence-bright cells against uninfected cell cultures. Concurrently, the cytotoxicity of tested compounds was evaluated in the same, but uninfected, cell line SupT1 using the XTT reagent. To determine antiviral activity and cytotoxicity, serial tenfold dilutions of the preparations were used (starting with 10 j-M for antiviral activity and from 100 μM for cytotoxicity). DMSO (0.1%) was used for negative control. The values of EC50, CC50 and SI (selectivity index) were found. The quality of tests was evaluated based on the following controls: signal to background ratio, integrase inhibitor raltegravir (1 μM), and reproducibility of test results. Emetine (0.03, 0.09, and 0.2 μM) was used as the reference for cytotoxicity evaluation.

[3] = Cytotoxicity in uninfected SupT1 cells (XTT reagent); format: cell-based; conditions: human, uninfected SupT1 cells (T-lymphocyte line)
Method: as §1

[4] = physchem; conditions: for half-life at 1 μM: simulated gi fluid
Method: (§2) Initial compositions comprising the prodrug of formula 1B.7 (the tested compounds) were prepared with a concentration of 10 mM in DMSO. From said compositions, 100-fold working solutions were prepared with a concentration of 100 μM in a mixture of acetonitrile:water with a volumetric ratio of 1:1.
b) Stability in Artificial Gastric and Intestinal Juices.
The tested composition comprising the prodrug of formula 1B.7 in a final concentration of 1 μM was incubated in artificial gastric juice (0.2% NaCl in 0.7% v/v HCl) and artificial intestinal juice (0.05M KH2PO4, pH 6.75). The incubation was performed in a Vortemp56 shaking incubator at 37° C. with stirring at a rate of 300 rev/min. […] The samples were then centrifuged, and the supernatant (150 μl) was sampled for analysis […]. The incubation was performed in two replicates, with each sample measured twice.
Samples were analyzed using an HPLC-MS/MS technique developed for each tested prodrug, wherein the chromatographic system 1290 Infinity II (Agilent Technologies) was combined with the tandem mass spectrometer QTRAP5500 (AB Sciex). When developing conditions for mass-spectrometric detection, the solutions of tested compounds in a mixture of acetonitrile-water 1:1 with a concentration of 100 ng/ml were injected directly into the mass spectrometer using a syringe pump with electrospray ionization in a positive ion mode. Scanning in a total ion current mode (MS1) allowed us to identify a molecular ion for each compound, and basic product ions were recorded in MS2 mode. Then, to attain maximum sensitivity, the MS/MS technique was optimized in MRM mode. In quantitative chromatogram processing, the most intensive MRM transition was used for the analyte and the internal standard. Separation was carried out by means of linear gradient elution chromatography on a YMC Triart C18 column (50×2 mm, 1.9 μm) in a mobile phase consisting of 0.1% formic acid in water and 0.1% formic acid in acetonitrile. Tolbutamide (Fluka) was used as the internal standard.
(§3) Half-life (T1/2) was found from the kinetics of tested prodrug elimination in an antiviral composition during incubation in a biological matrix. The computations were based on the values of chromatographic peak areas for compounds in test samples normalized to the internal standard signal. From linear dependence of log normalized areas of chromatographic peaks on time, the constant of elimination rate was calculated (k is linear section slope).

[5] = pooled human blood plasma, 1 μM, 37° C.
Method: as §2
(§4) The samples were then centrifuged, and the supernatant (150 μl) was sampled for analysis […]. The incubation was performed in two replicates, with each sample measured twice.
(§5) Samples were analyzed using an HPLC-MS/MS technique developed for each tested prodrug, wherein the chromatographic system 1290 Infinity II (Agilent Technologies) was combined with the tandem mass spectrometer QTRAP5500 (AB Sciex). […] Scanning in a total ion current mode (MS1) allowed us to identify a molecular ion for each compound, and basic product ions were recorded in MS2 mode. […] In quantitative chromatogram processing, the most intensive MRM transition was used for the analyte and the internal standard. […]
as §3, with “The computations were based on the values of chromatographic peak areas for compounds in test samples normalized to the internal standard signal.” left out

[6] = Stability in human liver S9 fraction
Method: as §2, §4, §5
as §3, with “The computations were based on the values of chromatographic peak areas for compounds in test samples normalized to the internal standard signal.” left out

[7] = system: HCV replicon, genotype 1b (gT1b HCV NS5B); conditions: cited from earlier work; for EC50: from hcvdruginfo.ca
[8] = from M. J. Sofia et al. J. Med. Chem. 2010; cited from earlier work
[9] = from M. J. Sofia et al. J. Med. Chem. 2010; cited from earlier work; remark: listed apart in the source
[10] = from M. J. Sofia et al. J. Med. Chem. 2010; cited from earlier work; remark: listed apart in the source
[11] = from M. J. Sofia et al. J. Med. Chem. 2010; cited from earlier work; remark: listed apart in the source
[12] = system: HCV replicon, genotype 1b (gT1b HCV NS5B); assay: Anti-HCV activity in Huh7 cells stably transfected with an HCV replicon; format: cell-based
Method: The antiviral activity of tested compositions comprising prodrugs was evaluated using an Huh7 human hepatocellular carcinoma cell line stably transfected with an HCV replicon. A cell suspension in a complete culture medium (DMEM 1X, Cellgro; cat. #10-013-CV) was transferred into 96-well plates (50 μl per well) with a final density of 7500 cells per well. The serial dilutions of tested prodrugs were prepared from a fresh 200-fold generic solution in DMSO with 11 concentration points dilution for each step, starting from 20 nM in a complete medium and were used as 2-fold solutions in two replicates. Minimum 4 hours after planting the cells, 50 μl of serial prodrug dilutions was added to each well. […] The plate with cells was incubated for 3 days at 37° C. under humidified 5% CO2. Upon completion of incubation, the medium was removed by turning the plate over and shaking it carefully. The cells were fixed for one minute with 100 μl of a 1:1 acetone:methanol solution, washed 3 times with a phosphate buffer (PBS), and blocked for 1 h at room temperature using a 10% fetal bovine serum (FBS) in PBS (150 μl/well). […] The reaction was stopped by 2N H2SO4 (100 μl/well), and OD490 was measured using the multifunctional reader Victor^3 V 1420 (Perkin Elmer). The values of EC50 for tested prodrugs were measured from an activity curve plotted using the GraphPad Prizm software.

[13] = system: Huh7 human hepatocellular carcinoma cell line; conditions: from M. J. Sofia et al. J. Med. Chem. 2010; cited from earlier work
[14] = system: SupT1 cells; assay: Cytotoxicity in uninfected SupT1 cells (XTT reagent); format: cell-based
Method: as §1

[15] = gT1b, from M. J. Sofia et al. J. Med. Chem. 2010

## CC(C)(CO)C(=O)SCCOP(=O)(NCc1ccccc1)OC[C@H]1OC(n2cnc3c(=O)[nH]c(N)nc32)[C@](C)(O)[C@@H]1O (stereo partly shown) [IDX-184]
[1]
  EC50: 400 nM

## COc1nc(N)nc2c1ncn2[C@@H]1O[C@H](COP(=O)(N[C@@H](C)C(=O)OCC(C)(C)C)Oc2cccc3ccccc23)[C@@H](O)[C@@]1(C)O (stereo partly shown) [INX-08189]
[1]
  EC50: 10 nM

## COc1nc(N)nc2c1ncn2C1O[C@H](COP(=O)(N[C@@H](C)C(=O)OC(C)C)Oc2ccccc2)[C@@H](O)[C@@]1(C)F (stereo partly shown) [PSI-353661]
[1]
  EC90: 8 nM

## C[C@H](Cn1cnc2c(N)ncnc21)OC[P@@](=O)(N[C@@H](C)C(=O)OC1CCC1)Oc1ccccc1 [Prodrug 1A.1, (S)-cyclobutyl 2-((S)-(((R)-1-(6-amino-9H-purin-9-yl)propan-2-yloxy)methyl) (phenoxy)phosphorylamino)-propanoate]
[2]
  EC50: 27 nM
  SI = CC50/EC50: >3704
[2]; SupT1 HIV test, versus TAF
  selectivity, times higher than TAF: 1.4 times
[3]
  CC50: > 100000 nM

## C[C@H](Cn1cnc2c(N)ncnc21)OC[P@](=O)(N[C@@H](C)C(=O)OC1CCC1)Oc1ccccc1 [Prodrug 1A.2, (S)-cyclobutyl 2-((R)-(((R)-1-(6-amino-9H-purin-9-yl)propan-2-yloxy)methyl) (phenoxy)phosphorylamino)-propanoate]
[2]
  EC50: 38 nM
  SI = CC50/EC50: >2632
[3]
  CC50: > 100000 nM

## C[C@H](N[P@](=O)(OC[C@H]1O[C@@H](n2ccc(=O)[nH]c2=O)[C@](C)(F)[C@@H]1O)Oc1ccccc1)C(=O)OC1CCC1 [Prodrug 1B.7, (S)-cyclobutyl 2-{(S)-[(2R,3R,4R,5R)-5-(3,4-dihydro-2,4-dioxo-2H-pyrimidin-1-yl)-3-hydroxy-4-methyl-4-fluoro-tetrahydrofuran-2-ylmethoxy]-phenoxy-phosphorylamino}-propanoate]
[4]; artificial gastric juice, 1 μM, 37° C.
  T1/2 SGF: 12.7 h
[4]; artificial intestinal juice, 1 μM, 37° C.
  T1/2 SIF: >24 h
[4]
  half-life at 1 μM: 12.7 to 17 h
[4]; pH 6.75
  half-life at 1 μM: > 20 h
[5]
  T1/2 human plasma: >24 h
[6]; versus Sovaldi
  metabolic rate in human S9 fraction, times faster than Sovaldi: 11 times
[6]; versus compound of formula 2.1
  metabolic rate in human S9 fraction, times faster than compound 2.1: 28 times

## C[C@H](NP(=O)(OC[C@H]1O[C@@H](n2ccc(=O)[nH]c2=O)[C@](C)(F)[C@@H]1O)Oc1ccccc1)C(=O)OC1CCCCC1 (stereo partly drawn) [Prodrug 2.1, cyclohexyl (S)-2-{[(2R,3R,4R,5R)-5-(2,4-dioxo-3,4-dihydro-2H-pyrimidin-1-yl)-4-fluoro-3-hydroxy-4-methyl-tetrahydrofuran-2-ylmethoxy]-phenoxy-phosphorylamino}-propionate]
[7]; [15]
  EC90: 250 nM
[8]
  T1/2 human S9: 1.4 h
[9]
  T1/2 SGF: 17* h
[10]
  T1/2 SIF: >20* h
[11]
  T1/2 human plasma: >24* h

## C[C@H](N[P@](=O)(OC[C@H]1O[C@@H](n2ccc(=O)[nH]c2=O)[C@](C)(F)[C@@H]1O)Oc1ccccc1)C(=O)OC1CC1 [Prodrug 2.2, (S)-cyclopropyl 2-((S)-(((2R,3R,4R,5R)-5-(2,4-dioxo-3,4-dihydropyrimidin-1(2H)-yl)-3-hydroxy-4-methyl-4-fluoro-tetrahydrofuran-2-yl)methoxy)-(phenoxy)-phosphorylamino)-propanoate]
[12]; 10% FBS
  EC90: 410 nM
[12]; Hepatitis C virus, Huh-7, 10% FBS
  EC50: 73 nM

## CC(C)OC(=O)[C@H](C)NP(=O)(OC[C@H]1O[C@@H](n2ccc(=O)[nH]c2=O)[C@](C)(F)[C@@H]1O)Oc1ccccc1 (stereo partly drawn) [Sovaldi ®, isopropyl (S)-2-{[(2R,3R,4R,5R)-5-(2,4-dioxo-3,4-dihydro-2H-pyrimidin-1-yl)-4-fluoro-3-hydroxy-4-methyl-tetrahydrofuran-2-ylmethoxy]-phenoxy-phosphorylamino}-propionate]
[7]; [15]
  EC90: 520 nM
[7]; gT1b, from M. J. Sofia et al. J. Med. Chem. 2010, listed as Sovaldi®
  EC90: 590 nM
[7]; gT1b
  EC50: 45 to 170 nM
[7]; genotype 1b (gT1b) HCV
  EC90: 590 nM
  EC50: 45 to 170 nM
[13]
  CC90: > 100000 nM
[8]
  T1/2 human S9: 0.54 h and 0.57 h
[9]
  T1/2 SGF: 22.0* h
[10]
  T1/2 SIF: >24* h
[11]
  T1/2 human plasma: >24* h

## CC(C)OC(=O)[C@H](C)N[P@](=O)(CO[C@H](C)Cn1cnc2c(N)ncnc21)Oc1ccccc1 [TAF, temofovir alafenamide]
[2]
  EC50: 35 nM
  SI = CC50/EC50: 2857
[14]
  CC50: > 100000 nM
